Calls of active or inactive are those of the source. How the calls were made is not given here.
Biological target: Sphingosine 1-phosphate receptor 1 (Homo sapiens) (UniProt P21453)
Test: S1P1 receptor activation, potency – cell-based, fluorescence, late-stage, counter-screen for S1PR3 antagonist project, dose response (AID 743426)
Details: S1P1-expressing cells, agonist counterscreen

Chain of Sphingosine 1-phosphate receptor 1 (Homo sapiens) (P21453 whole entry, looked up): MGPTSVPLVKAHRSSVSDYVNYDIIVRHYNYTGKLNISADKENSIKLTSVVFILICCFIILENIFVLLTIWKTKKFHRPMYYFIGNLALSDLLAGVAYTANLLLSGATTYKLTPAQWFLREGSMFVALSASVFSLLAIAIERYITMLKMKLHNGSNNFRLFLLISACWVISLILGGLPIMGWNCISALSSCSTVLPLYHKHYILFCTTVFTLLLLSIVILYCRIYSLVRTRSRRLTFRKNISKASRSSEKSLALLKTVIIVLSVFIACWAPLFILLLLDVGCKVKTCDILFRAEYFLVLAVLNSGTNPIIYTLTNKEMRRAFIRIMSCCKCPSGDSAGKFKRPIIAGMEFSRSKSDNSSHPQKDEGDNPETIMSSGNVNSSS

EC50 | Compound
inactive | O=C(NC(c1ccccc1)c1nc(-c2ccccc2)no1)c1cccc(Br)c1 (configuration not stated)
inactive | O=C(NC(c1ccccc1)c1nc(-c2ccccc2)no1)c1cccc(Cl)n1 (configuration not stated)
> 50 µM (inactive) | O=C(NC(c1ccc(Cl)c(Cl)c1)c1nc(-c2ccccc2)no1)c1ccccc1 (configuration not stated)
> 50 µM (inactive) | O=C(NC(c1ccccc1)c1nc(-c2ccccc2)no1)c1cccc(Cl)c1 (configuration not stated)
> 50 µM (inactive) | O=C(NC(c1nc(-c2ccccc2)no1)C1CCCCC1)c1ccc(Cl)c(Cl)c1 (configuration not stated)
> 50 µM (inactive) | CCc1ccc(C(NC(=O)c2cccc(Cl)c2)c2nc(-c3ccccc3)no2)cc1 (configuration not stated)
> 50 µM (inactive) | COc1ccc(C(=O)NC(c2ccccc2)c2nc(-c3ccccc3)no2)cc1 (configuration not stated)
> 50 µM (inactive) | O=C(NC(c1ccc(Cl)c(Cl)c1)c1nc(-c2ccccc2)no1)c1cccc(Cl)c1 (configuration not stated)
> 50 µM (inactive) | O=C(NC(c1ccc(Cl)cc1)c1nc(-c2ccccc2)no1)c1ccc(Cl)c(Cl)c1 (configuration not stated)
inactive | O=C(NC(Cc1ccccc1)c1nc(-c2ccccc2)no1)c1cccc(Cl)c1 (configuration not stated)
inactive | O=C(c1cccc(Cl)c1)N(CCO)C(c1ccc(Cl)c(Cl)c1)c1nc(-c2ccccc2)no1 (configuration not stated)
> 50 µM (inactive) | O=C(NC(c1cccc(Cl)c1)c1nc(-c2ccccc2)no1)c1cccc(Cl)c1 (configuration not stated)
> 50 µM (inactive) | O=C(NC(c1ccccc1)c1nc(-c2ccccc2)no1)c1ccc(Cl)cc1 (configuration not stated)
> 50 µM (inactive) | Cc1ccc(C(NC(=O)c2cccc(Cl)c2)c2nc(-c3ccccc3)no2)cc1 (configuration not stated)
> 50 µM (inactive) | O=C(NC(c1cccc(Cl)c1)c1nc(-c2ccccc2)no1)c1cc(Cl)cc(Cl)c1 (configuration not stated)
> 50 µM (inactive) | O=C(NC(c1ccc(Cl)cc1)c1nc(-c2cccc(Cl)c2)no1)c1cccc(Cl)c1 (configuration not stated)
> 50 µM (inactive) | O=C(NC(c1ccc(Cl)cc1)c1nc(-c2ccccn2)no1)c1cccc(Cl)c1 (configuration not stated)
> 50 µM (inactive) | O=C(NC(c1ccc(Cl)c(Cl)c1)c1nc(-c2ccccc2)no1)c1ccc(Cl)cc1 (configuration not stated)
> 50 µM (inactive) | Cc1ccc(C(=O)NC(c2ccccc2)c2nc(-c3ccccc3)no2)cc1 (configuration not stated)
> 50 µM (inactive) | O=C(NC(c1ccc(Cl)cc1)c1nc(-c2ccccc2)no1)c1cccc(Cl)c1 (configuration not stated)
> 50 µM (inactive) | O=C(NC(c1ccc(Cl)cc1)c1nc(-c2ccccc2)no1)c1ccc(Cl)c(Br)c1 (configuration not stated)
> 50 µM (inactive) | O=C(NC(c1cccc(Cl)c1)c1nc(-c2ccccc2)no1)c1ccc(Cl)c(Cl)c1 (configuration not stated)
> 50 µM (inactive) | O=C(NC(c1ccc(Cl)cc1)c1nc(-c2ccccc2)no1)c1cccc(Br)c1 (configuration not stated)
> 50 µM (inactive) | O=C(NC(c1ccc(Cl)c(Cl)c1)c1nc(-c2ccccc2)no1)c1ccc(Cl)c(Cl)c1 (configuration not stated)
> 50 µM (inactive) | N#Cc1ccc(C(=O)NC(c2ccc(Cl)c(Cl)c2)c2nc(-c3ccccc3)no2)cc1 (configuration not stated)
> 50 µM (inactive) | O=C(NC(c1nc(-c2ccccc2)no1)C1CCOCC1)c1ccc(Cl)c(Cl)c1 (configuration not stated)
> 50 µM (inactive) | O=C(NC(c1ccc(Br)cc1)c1nc(-c2ccccc2)no1)c1ccc(Cl)c(Cl)c1 (configuration not stated)

Reference: PubChem BioAssay AID743426 (The Scripps Research Institute Molecular Screening Center, 2014)
